In article PMC9788418, “Design, Synthesis and Biological Evaluation of Syn and Anti-like Double Warhead Quinolinones Bearing Dihydroxy Naphthalene Moiety as Epidermal Growth Factor Receptor Inhibitors with Potential Apoptotic Antiproliferative Action” (Molecules, 2022):

How the values were obtained:
Bax = Bax activation assay; format: cell-based, human; conditions: for Bax Conc: A-549
Procedure: 8, and lysed with Cell Extraction Buffer. This lysate was diluted in Standard Diluent Buffer over the range of the assay and measured for human active caspase-8 content. (cells are Plated in a density of 1.2 – 1.8 × 10,000 cells/well in a volume of 100µl complete growth medium + 100 ul of the tested compound per well in a 96-well plate for 24 hours before the enzyme assay for […].). […]
4.2.4. Bax activation assay
Bring all reagents, except the human Bax-α Standard, to room temperature for at least 30 minutes prior to opening. The human Bax-α Standard solution should not be left at room temperature for more than 10 minutes. All standards, controls and samples should be run in duplicate. Refer to the Assay Layout Sheet to determine the number of wells to be used and put any remaining wells with the desiccant back into the pouch and seal the ziploc. Store unused wells at 4 °C. Pipet 100 μL of Assay Buffer into the S0 (0 pg/mL standard) wells. Pipet 100 μL of Standards #1 through #6 into the appropriate wells. Pipet 100 μL of the Samples into the appropriate wells. Tap the plate gently to mix the contents. Seal the plate and incubate at room temperature on a plate shaker for 1 hour at ~500 rpm. Empty the contents of the wells and wash by adding 400 μL of wash solution to every well.
Repeat the wash 4 more times for a total of 5 washes. After the final wash, empty or aspirate the wells and firmly tap the plate on a lint free paper towel to remove any remaining wash buffer. Pipet 100 μL of yellow Antibody into each well, except the Blank. Seal the plate and incubate at room temperature on a plate shaker for 1 hour at ~500 […]
wells and firmly tap the plate on a lint free paper towel to remove any remaining wash buffer. Add […]
100 μL of blue Conjugate to each well, except the Blank. Seal the plate and incubate at room temperature on a plate shaker for 30 minutes at ~500 rpm. Empty the contents of the wells and wash by adding 400 μL of wash solution to every well. Repeat the wash 4 more times for a total of 5 washes. After the final wash, empty or aspirate the wells and firmly tap the plate on a lint free paper towel to remove any remaining wash buffer. Pipet 100 μL of Substrate Solution into each well.
Incubate for 30 minutes at room temperature on a plate shaker at ~500 rpm. Pipet 100 μL Stop Solution to each well. Blank the plate reader against the Blank wells, read the optical density at 450 nm. Calculate the average net Optical Density (OD) bound for each standard and sample by subtracting the average Blank OD from the average OD for each standard and sample. Using linear graph paper, plot the Average Net OD for each standard versus Bax concentration in each standard.
Approximate a straight line through the points. The concentration of Bax in the unknowns can be determined by interpolation. […]

caspase-3 = assay: Caspase-3 activation assay
Procedure: record autophosphorylation level, EGFR kinase assay was carried out based on DELFIA/Time-
Resolved Fluorometry. The compounds were first dissolved in DMSO absolute, after dilution to
Each compound (10 µL) was incubated
with recombinant enzyme (10 µL, 5 ng for EGFR, 1:80 dilution in 100 mM HEPES) for 10 min at
25 °C, after the addition of 5X buffer (10 µL, containing 2 mM MnCl2, 100 µM Na3VO4, 20 mM HEPES and 1 mM DTT) and ATP-MgCl2 (20 µL, containing 0.1 mM ATP and 50 mM MgCl2) and
incubation for 1h. The negative and positive controls were included in each plate by the incubation
of enzyme either with or without ATP-MgCl2. The liquid was removed after incubation and the plates
were washed thrice using wash buffer. Europium-tagged antiphosphotyrosine antibody (75 µL, 400
ng) was added to each well followed by incubation of 1h and then washing of the plates using buffer.
The enhancement solution was added to each well and the signal was recorded at excitation and
The autophosphorylation percentage inhibition by compounds was calculated using the following equation:

Bcl-2 = Bcl-2 inhibition assay; format: cell-based, human
Procedure: 4.2.5. Bcl-2inhibition assay
Mix all reagents thoroughly without foaming before use. Wash the microwells twice with approximately 300 μL Wash Buffer per well with thorough aspiration of microwell contents between washes. Take caution not to scratch the surface of the microwells. After the last wash, empty the wells and tap microwell strips on absorbent pad or paper towel to remove excess Wash Buffer. Use the microwell strips immediately after washing or place upside down on a wet absorbent paper for not […]
longer than 15 minutes. […] Add 100 μL of Sample Diluent in duplicate to all standard wells and to the blank wells. Prepare standard (1:2 dilution) in duplicate ranging from 32 ng/mL to 0.5 ng/mL. Add 100 μL of Sample Diluent, in duplicate, to the blank wells. Add 80 μL of Sample Diluent, in duplicate, to the sample wells. Add 20 μL of each Sample, in duplicate, to the designated wells. Add 50 μL of diluted biotin-conjugate to all wells, including the blank wells. Cover […]
Remove plate cover and empty the wells. […]
(§1) plate cover and incubate at room temperature, on a microplate shaker at 100 rpm if available, for 1 hour. Remove plate cover and empty the wells. Wash microwell strips 3 times as described in step 2.
(§2) Proceed to the next step. Pipette 100 μl of mixed TMB Substrate Solution to all wells, including the […]
available on a rotator set at 100 rpm. Avoid direct exposure to intense light. The point, at which the substrate reaction is stopped, is often determined by the ELISA reader. Many ELISA readers record absorbance only up to 2.0 O.D. Therefore, the color development within individual microwells must be watched by the person running the assay and the substrate reaction stopped before positive wells are no longer properly detectable. Stop the enzyme reaction by quickly pipetting 100 μL of Stop Solution into each well, including the blank wells. It is important that the Stop Solution is spread quickly and uniformly throughout the microwells to completely inactivate the enzyme. Results must be read immediately after the Stop Solution is added or within one hour if the microwell strips are stored at 2 - 8°C in the dark. Read absorbance of each microwell on a spectrophotometer using 450 nm as the primary wave length. […]

caspase-8 = assay: Caspase-8 activation assay; format: cell-based, human
Cytochrome C = Cytochrome C assay; format: cell-based, human
Procedure: The concentration of Cytochrome c in a cell is crucial for activating caspases and starting the intrinsic apoptosis process. […]
as §1, §2
available on a rotator set at 100 rpm. Avoid direct exposure to intense light. The point, at which the substrate reaction is stopped, is often determined by the ELISA reader. Many ELISA readers record absorbance only up to 2.0 O.D. Therefore, the color development within individual microwells must be watched by the person running the assay and the substrate reaction stopped before positive wells are no longer properly detectable. Stop the enzyme reaction by quickly pipetting 100 μL of Stop Solution into each well, including the blank wells. It is important that the Stop Solution is spread quickly and uniformly throughout the microwells to completely inactivate the enzyme. Results must be read immediately after the Stop Solution is added or within one hour if the microwell strips are stored at 2 - 8°C in the dark. Read absorbance of each microwell on a spectrophotometer using 450 nm as the primary wave length.
4.2.6. Cytochrome C assay […]
cytochrome C, and lysed with Cell Extraction Buffer. This lysate was diluted in Standard Diluent Buffer over the range of the assay and measured for cytochrome C content. (Cells are Plated in cells/well in a volume of 100µl complete growth medium + 100 µl of the tested compound + 50 µl of 1X biotin conjugated antibody+ 100 µl of 1X streptavidin-HRP+ 100 µL TMB substrate soln of per well in a 96-well plate for 24 hours before assay).
4.3. Statistical analysis
Computerized Prism 5 program was used to statistically analyzed data using one-way ANOVA test followed by Tukey’s as post ANOVA for multiple comparison at P ≤.05. Data were presented as […]

caspase-9 = assay: Caspase-9 level assay; format: cell-based, human
Procedure: The impact of compounds 4a and 4b on caspase-8 and caspase-9 was also assessed to clarify how compounds 4a and 4b induce apoptosis by activating the intrinsic or extrinsic route.

[1] = A-549, vs control untreated cells

Compound: COc1cccc2c1C(=O)c1c(O)c3c(c(O)c1C2=O)C[C@@](O)(C(=O)CO)C[C@@H]3O[C@H]1C[C@H](N)[C@H](O)[C@H](C)O1 [Doxorubicin, reference compound]
- Bax Conc (Bax): 276.20 pg/mL
- Bax Fold Change (Bax; [1]): 33
- Bax Conc (Bax; listed as doxorubicin): 276 pg/mL
- Caspase-3 Conc (caspase-3; A-549): 503.25 ± 4.50 pg/mL
- Caspase-3 Fold Change (caspase-3; [1]): 7.70
- Bcl-2 Conc (Bcl-2; A-549): 1.98 ng/mL
- Bcl-2 Fold Reduction (Bcl-2; A-549, vs control): 2.5
- Caspase-8 Conc (caspase-8): 1.80 ng/mL
- Caspase-8 Fold Change (caspase-8; vs control cells): 9
- Cytochrome C Conc (Cytochrome C; A-549): 0.60 ng/mL
- Cytochrome C Fold Change (Cytochrome C; A-549, vs control): 12
- Caspase-9 Conc (caspase-9): 16.25 ng/mL
- Caspase-9 Fold Change (caspase-9; vs control cells): 17.00
